# Measured values reported in paper PMC5429621 (Scientific Reports, 2017).
# Substitutions are numbered along the chain they refer to.
# Tests used:
# Experiment in all cases: two-electrode voltage clamp, Xenopus oocytes
# Assay type in all cases: cell-based
# hP2X7-2Nβ K110Y = target: T1, hP2X7-2Nβ K110Y (Homo sapiens, UniProt Q99572, I21V/K110Y/M24R/N16P/N25R/Q22R/R20V/S23N/T19I/Y26L); settings: relative to P2X7-2Nβ
# T1 construct: expressed in transfected cells; host or cells: Xenopus laevis oocytes (cRNA injection)
# T1 sequence (Q99572 1-595 N16P/T19I/R20V/I21V/Q22R/S23N/M24R/N25R/Y26L/K110Y): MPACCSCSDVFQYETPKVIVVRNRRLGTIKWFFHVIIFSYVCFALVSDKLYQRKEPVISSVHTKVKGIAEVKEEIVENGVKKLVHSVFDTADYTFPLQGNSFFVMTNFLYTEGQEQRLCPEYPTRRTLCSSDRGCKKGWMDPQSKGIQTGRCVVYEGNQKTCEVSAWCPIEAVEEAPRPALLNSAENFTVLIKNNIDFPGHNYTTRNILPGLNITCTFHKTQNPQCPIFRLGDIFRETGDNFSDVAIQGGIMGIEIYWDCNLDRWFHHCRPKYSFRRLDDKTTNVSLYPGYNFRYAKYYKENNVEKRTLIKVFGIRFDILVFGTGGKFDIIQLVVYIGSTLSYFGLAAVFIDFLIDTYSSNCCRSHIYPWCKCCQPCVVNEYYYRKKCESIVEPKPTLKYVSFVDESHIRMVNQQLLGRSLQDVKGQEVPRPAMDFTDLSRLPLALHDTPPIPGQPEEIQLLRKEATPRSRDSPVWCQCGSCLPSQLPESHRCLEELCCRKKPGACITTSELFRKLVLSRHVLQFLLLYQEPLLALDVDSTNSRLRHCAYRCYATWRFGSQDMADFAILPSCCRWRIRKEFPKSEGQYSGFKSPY
# Source text: (§1) The hP2X1R was a gift from Dr Lin-Hua Jiang (University of Leeds, UK) and the hP2X1R cDNA has been described previously. Chimeras were generated by megaprimer-mediated domain swapping. In addition to chimeras, point mutations, deletions and insertions were made using the QuikChange (Stratagene) or Q5 (New England Bioscience) mutagenesis kits. The production of the correct mutations and absence of coding errors was verified by DNA sequencing (Automated ABI Sequencing Service, University of Leicester, UK).
# (§2) P2XR constructs were transcribed to produce sense-strand cRNA (mMessage mMachine, Ambion, Austin, TX). Manually defoliculated stage V Xenopus laevis oocytes were injected with 50 nl (50 ng) of cRNA using an Inject + Matic microinjector (J.A. Gaby, InjectMatic, Geneva, Switzerland) and stored at 16 °C in ND96 buffer (in mM, NaCl 96, KCl 2, CaCl2 1.8, MgCl2 1, sodium pyruvate 5, HEPES 5 (pH 7.6) supplemented with 50 µg/ml gentamycin and 50 µg/ml tetracycline). For electrophysiological recordings (3–7 days post-injection) oocytes were bathed in divalent free ND96 buffer (in mM, NaCl 96, KCl 2, sodium pyruvate 5, HEPES 5 and 0.1 flufenamic acid, pH 7.6).
# (§3) ATP (sodium salt, Sigma) was applied via a U-tube perfusion system for 3 s at 3–5 minute intervals to allow reproducible responses to be recorded. […] To standardize for any change in ATP sensitivity at mutant receptors antagonists were co-applied with an EC90 concentration of ATP.
# (§4) Concentration response curves were normalized to the maximal response and fitted with the Hill equation (variable slope) with GraphPad Prism 6 (Graphpad software, San Diego, CA). […] Individual concentration response curves were generated for individual experiments and statistical analysis was carried out on the data generated. In the figures the inhibition curves are fitted to the mean normalized data. Any significant differences were calculated by one-way analysis of variance, followed by Bonferroni’s test (using GraphPad Prism 6). Data are shown as mean ± SEM.
# hP2X7-2Nβ K297G = target: T2, hP2X7-2Nβ K297G (Homo sapiens, UniProt Q99572, I21V/K297G/M24R/N16P/N25R/Q22R/R20V/S23N/T19I/Y26L); settings: relative to P2X7-2Nβ
# T2 construct: expressed in transfected cells; host or cells: Xenopus laevis oocytes (cRNA injection)
# T2 sequence (Q99572 1-595 N16P/T19I/R20V/I21V/Q22R/S23N/M24R/N25R/Y26L/K297G): T1 sequence (Q99572 1-595 N16P/T19I/R20V/I21V/Q22R/S23N/M24R/N25R/Y26L/K110Y) with Y110K, K297G
# Source text: as §1, §2, §3, §4
# [1] = target: T3, hP2X7-2Nβ/P2X1 chimera 279–285 (Homo sapiens, UniProt Q99572, DEL279-281/I21V/M24R/N16P/N25R/N284E/Q22R/R20V/S23N/T19I/T282Y/T283E/V285K/Y26L); settings: 279–285 chimera; relative to P2X7-2Nβ
# T3 construct: expressed in transfected cells; host or cells: Xenopus laevis oocytes (cRNA injected)
# T3 sequence (Q99572 with tags, fused parts or gaps N16P/T19I/R20V/I21V/Q22R/S23N/M24R/N25R/Y26L/DEL279-281/T282Y/T283E/N284E/V285K): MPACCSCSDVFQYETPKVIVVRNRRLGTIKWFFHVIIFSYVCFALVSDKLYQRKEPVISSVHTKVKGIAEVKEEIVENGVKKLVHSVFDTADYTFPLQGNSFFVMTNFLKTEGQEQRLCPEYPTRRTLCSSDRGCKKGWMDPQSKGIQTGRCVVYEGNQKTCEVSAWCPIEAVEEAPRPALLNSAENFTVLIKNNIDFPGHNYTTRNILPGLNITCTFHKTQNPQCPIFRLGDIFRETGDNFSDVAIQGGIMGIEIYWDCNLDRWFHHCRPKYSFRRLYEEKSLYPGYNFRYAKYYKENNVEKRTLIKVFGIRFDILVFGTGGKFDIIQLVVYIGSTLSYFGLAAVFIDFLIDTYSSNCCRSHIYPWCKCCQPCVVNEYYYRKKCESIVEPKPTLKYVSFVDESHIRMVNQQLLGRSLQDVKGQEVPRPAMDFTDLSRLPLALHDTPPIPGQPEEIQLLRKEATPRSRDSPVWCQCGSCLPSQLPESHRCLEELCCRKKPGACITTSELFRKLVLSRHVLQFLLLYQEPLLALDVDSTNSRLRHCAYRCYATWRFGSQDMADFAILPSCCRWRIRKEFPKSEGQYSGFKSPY
# Source text: as §1, §2, §3, §4
SMILES,increase in sensitivity to AZ10606120 (hP2X7-2Nβ K110Y),increase in AZ10606120 sensitivity (hP2X7-2Nβ K297G) [fold],increase in ATP sensitivity [1]
"Cl.Cl.O=C(CC12CC3CC(CC(C3)C1)C2)Nc1cccc2nc(NCCNCCO)ccc12 [AZ10606120, N-[2-[[2-[(2-Hydroxyethyl)amino]ethyl]amino]-5-quinolinyl]-2-tricyclo[3.3.1.13,7]dec-1-ylacetamide dihydrochloride]",~ 100 fold,> 100,–
Nc1ncnc2c1ncn2[C@@H]1O[C@H](COP(=O)(O)OP(=O)(O)OP(=O)(O)O)[C@@H](O)[C@H]1O [ATP],–,–,~ 10 fold
